Source: patent US20230331803A1, “CO-AGONISTS OF THE GLP-1 AND AMYLIN RECEPTORS” (priority 2020, published 2023)
Where two headings read alike, the source gives them in different places. Starred links: 1 amine or outer side, 2 acyl side, 3 side chain; linkers in the order of their positions; H or OH if unused. Positions of bridges follow the written chain, without caps; N, C: chain ends. Non-standard residues stand in square brackets, D forms with d. Groups on a side chain read outwards from the residue. *: point of attachment. X1 = O=C(O)CCCCCCCCCCCCCCC(=O)N[C@@H](CCC(=O)NCCOCCOCC(=O)NCCOCCOCC(=O)NCCCC[C@H](NC(=O)COCCOCCNC(=O)COCCOCCNC(=O)CC[C@H](NC(=O)CCCCCCCCCCCCCCC(=O)O)C(=O)O)C(=O)*)C(=O)O; C20 diacid = O=C(O)CCCCCCCCCCCCCCCCCCC(=O)*; C18 diacid = O=C(O)CCCCCCCCCCCCCCCCC(=O)*; C16 diacid = O=C(O)CCCCCCCCCCCCCCC(=O)*; γGlu = O=C(O)[C@H](CCC(=O)[*:2])N[*:1]; Desaminohistidyl = O=C(CCc1c[nH]cn1)*; X2 = O=C(CCCCCCCCCCCCCCCCc1nnn[nH]1)*; εLys = N[C@@H](CCCCN[*:1])C(=O)[*:2]; AEEA = NCCOCCOCC(=O)O; Aib = CC(C)(N)C(=O)O

Experiments:
human GLP-1 receptor = biological target: T1, human GLP-1 receptor (Homo sapiens, UniProt P43220); assay: Human GLP-1 receptor in vitro potency assay (CRE-luciferase reporter, BHK cells); format: cell-based; details: for Ability to agonise the GLP-1 receptor, in words: Tables 4a-4c
T1 construct: expressed in transfected cells; host or cells: BHK (Baby Hamster Kidney) cells, clone BHK 467-12A KZ-10, stably transfected, with CRE-luciferase reporter
T1 sequence (P43220 24-463): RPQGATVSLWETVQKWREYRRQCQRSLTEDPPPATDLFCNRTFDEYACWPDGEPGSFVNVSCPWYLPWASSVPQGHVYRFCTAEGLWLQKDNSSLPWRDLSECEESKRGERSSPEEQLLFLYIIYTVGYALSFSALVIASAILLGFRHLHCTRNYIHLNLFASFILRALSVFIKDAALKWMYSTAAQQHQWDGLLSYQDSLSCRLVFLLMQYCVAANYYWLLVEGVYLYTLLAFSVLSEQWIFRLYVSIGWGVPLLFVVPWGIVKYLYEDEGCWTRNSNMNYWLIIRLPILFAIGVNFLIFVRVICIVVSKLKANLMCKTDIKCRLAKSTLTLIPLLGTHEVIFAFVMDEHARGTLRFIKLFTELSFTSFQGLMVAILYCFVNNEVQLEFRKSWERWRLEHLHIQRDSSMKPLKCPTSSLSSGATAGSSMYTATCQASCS
Method: It is thus possible to measure GLP-1 receptor activity using a CRE-luciferase reporter gene introduced into Baby Hamster Kidney (BHK) cells co-expressing the GLP-1 receptor.
Cells were aliquoted and stored at -180° C. until use.
Plates were sealed and incubated at room temperature with gentle shaking for 30 minutes while protected from light. Luminescence was detected on a luminescence plate reader e.g. a Synergy 2 (BioTek).

[1] = biological target: T2, human amylin receptor (hAmyR3) (Homo sapiens, UniProt O60896+P30988); assay: Human amylin receptor in vitro potency assay (CRE-luciferase reporter, BHK cells); format: cell-based;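 further: BHK cells expressing human calcitonin receptor plus RAMP3 (amylin-3 receptor) with a CRE-luciferase reporter, agonist activity read as luminescence from cAMP-driven transcription, 7-point serial dilutions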
T2 construct: host or cells: BHK cells (Hollex-1 line: human calcitonin receptor (a) + CRE-Luc), further transfected with human RAMP3
T2 sequence (P30988 25-474): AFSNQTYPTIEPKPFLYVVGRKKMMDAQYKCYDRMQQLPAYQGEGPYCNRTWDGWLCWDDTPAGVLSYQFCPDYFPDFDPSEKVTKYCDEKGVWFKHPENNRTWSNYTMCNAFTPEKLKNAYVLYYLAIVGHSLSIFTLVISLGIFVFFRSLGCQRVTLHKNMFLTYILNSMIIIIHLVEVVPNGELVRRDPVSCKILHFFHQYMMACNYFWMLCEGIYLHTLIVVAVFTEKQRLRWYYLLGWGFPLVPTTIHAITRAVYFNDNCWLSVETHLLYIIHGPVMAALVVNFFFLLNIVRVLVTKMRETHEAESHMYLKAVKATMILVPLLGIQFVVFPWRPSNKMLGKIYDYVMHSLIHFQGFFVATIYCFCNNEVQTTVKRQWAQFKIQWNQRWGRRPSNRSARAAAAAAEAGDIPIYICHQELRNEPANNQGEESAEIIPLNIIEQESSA
T2 sequence (O60896 24-148): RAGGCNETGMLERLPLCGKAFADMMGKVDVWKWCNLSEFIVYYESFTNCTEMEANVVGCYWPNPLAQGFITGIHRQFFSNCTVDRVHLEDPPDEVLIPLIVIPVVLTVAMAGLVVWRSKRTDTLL

[2] = Table 4a, BHK cells expressing human GLP-1R, CRE-Luc, 3 hours, read-out: Human GLP-1R potency [EC50 (pM)]
[3] = Table 4a, BHK hAmyR3/CRE-Luc cells, 3 hours, read-out: Human AmyR3 potency [EC50 (pM)]

Substance | EC50 (human GLP-1 receptor; [2]) [pM] | EC50 [1, 3] [pM] | further results
H-H[Aib]EGTFTSDVSSYLEEK([AEEA-AEEA-γGlu-C16 diacid])AAREFIAWLVRGRGGGGGEASELSTAALGRLSAELHELK([AEEA-AEEA-γGlu-C16 diacid])TLPRTETGSGSP-NH2 [Compound 0396] | 4.8 | 32.8 | 
H-H[Aib]EGTFTSDVSSYLEEQAARK([AEEA-AEEA-γGlu-C20 diacid])FIAWLVRGRGGGGGEASELSTAALGRLSAELHELATLPRTETGSGSP-NH2 [Compound 0562] | 19.3 | 4.1 | 
H-H[Aib]EGTFTSDVSSYLEEQAARK([AEEA-AEEA-γGlu-C18 diacid])FIEWLVRGK([AEEA-AEEA-γGlu-C18 diacid])GGEASELSTAALGRLSAELHELATLPRTETGSGSP-NH2 [Compound 0128] | 9.7 | 110 | 
H-H[Aib]EGTFTSDVSK([AEEA-X1])YLEEQAAREFIAWLVRGRGGGGGEASELSTAALGRLSAELHELATLPRTETGSGSP-NH2 [Compound 0564] | 24.5 | 14.5 | 
H-H[Aib]EGTFTSDVSSYLEEQAAREFIAWLVRGRK([AEEA-AEEA-γGlu-C18 diacid])GGGGEKCNTATCATQRLANFLVHSSNNFGPILPPTNVGSNTY-NH2 (disulfide 38-43 (inferred)) [Comparator compound 0671, reference compound] |  |  | EC50 (human GLP-1 receptor): 4.5 pM; Ability to agonise the GLP-1 receptor, in words (human GLP-1 receptor): retained their potencies on the GLP-1 receptor; EC50 [1]: 230 pM; Ability to agonise the amylin receptor, in words ([1]; Tables 4a-4c): impaired potency on the amylin receptor
H-H[Aib]EGTFTSDVSSYLEEQAAREFIAWLVRGRK([AEEA-AEEA-γGlu-C18 diacid])GGEASELSTAALGRLSAELHELATLPRTETGSGSP-NH2 [Compound 0114] | 1 | 17.5 | 
H-H[Aib]EGTFTSDVSSYLEGQAAKEIFAWLVRGRK([εLys-AEEA-AEEA-γGlu-C18 diacid])GGEASELSTAALGRLSAELHELATLPRTETGSGSP-NH2 [Comparator compound 0164, reference compound] |  |  | EC50 (human GLP-1 receptor; Table 4c, further comparator compounds): 852 pM; Ability to agonise the GLP-1 receptor, in words (human GLP-1 receptor): impaired their ability to agonise (activate) the GLP-1 receptor; EC50 ([1]; Table 4c, further comparator compounds, read-out: Human AmyR3 potency [EC50 (pM)]): 29.6 pM

Second part, led by results:

EC50 (human GLP-1 receptor; [2]) [pM] | EC50 [1, 3] [pM] | Substance | further results
3 | 11.4 | H-H[Aib]EGTFTSDVSSYLEEQAAREFIAWLVRGRK([AEEA-AEEA-γGlu-X2])GGGGEASELSTAALGRLSAELHELATLPRTETGSGSP-NH2 [Compound 0655] | 
23.8 | 97.9 | H-HGEGTFTSDVSSYLEEQAARK([AEEA-AEEA-γGlu-C16 diacid])FIEWLVRGK([AEEA-AEEA-γGlu-C16 diacid])GEGGEASELSTAALGRLSAELHELATLPRTETGSGSP-NH2 [Compound 0087] | 
14.3 | 19.5 | Desaminohistidyl-AEGTFTSDVSSYLEEQAAREFIAWLVRGRK([AEEA-AEEA-γGlu-C18 diacid])EASELSTAALGRLSAELHELATLPRTETGSGSP-NH2 [Compound 0051] | 
18.5 | 10.9 | H-H[Aib]EGTFTSDVSSYLEGQAAK([AEEA-AEEA-γGlu-C18 diacid])EFIAWLVRGRGGGGGGGGGGGGGEASELSTAALGRLSAELHELATLPRTETGSGSP-NH2 [Compound 0092] | 
